EP4722207A1, “OXOISOINDOLINYL-SUBSTITUTED TETRAHYDROPYRIMIDINEDIONE DERIVATIVE AND USE THEREOF” (Gluetacs Therapeutics (Shanghai) Co., Ltd., priority 2023, dated 2024)

Key:
Format in all cases: cell-based
Settings in all cases: 24 hours of compound treatment, 50 nM and 500 nM
[1] = molecular target: T1, WEE1 (Homo sapiens, UniProt P30291+Q96SW2); assay: Western-blot assay, substrate protein degradation in hPBMCs: WEE1
T1 construct: effects of the compounds of the present disclosure on the expression of target proteins in cells; endogenous in cells; host or cells: human PBMCs (hPBMCs)

[2] = molecular target: T2, IKZF3 (Homo sapiens, UniProt Q96SW2+Q9UKT9); assay: Western-blot assay, substrate protein degradation in hPBMCs: IKZF3
T2 construct: effects of the compounds of the present disclosure on the expression of target proteins in cells; endogenous in cells; host or cells: human PBMCs (hPBMCs)

[3] = molecular target: T3, IKZF2 (Homo sapiens, UniProt Q96SW2+Q9UKS7); assay: Western-blot assay, substrate protein degradation in hPBMCs: IKZF2
T3 construct: effects of the compounds of the present disclosure on the expression of target proteins in cells; endogenous in cells; host or cells: human PBMCs (hPBMCs)

[4] = molecular target: T4, CK1α (Homo sapiens, UniProt P48729+Q96SW2); assay: Western-blot assay, substrate protein degradation in hPBMCs: CK1α
T4 construct: effects of the compounds of the present disclosure on the expression of target proteins in cells; endogenous in cells; host or cells: human PBMCs (hPBMCs)

[5] = molecular target: T5, IKZF1 (Homo sapiens, UniProt Q13422+Q96SW2); assay: Western-blot assay, substrate protein degradation in hPBMCs: IKZF1
T5 construct: effects of the compounds of the present disclosure on the expression of target proteins in cells; endogenous in cells; host or cells: human PBMCs (hPBMCs)

[6] = molecular target: T6, GSPT1 (Homo sapiens, UniProt P15170+Q96SW2); assay: Western-blot assay, substrate protein degradation in hPBMCs: GSPT1
T6 construct: effects of the compounds of the present disclosure on the expression of target proteins in cells; endogenous in cells; host or cells: human PBMCs (hPBMCs)
T6 sequence (P15170 whole entry): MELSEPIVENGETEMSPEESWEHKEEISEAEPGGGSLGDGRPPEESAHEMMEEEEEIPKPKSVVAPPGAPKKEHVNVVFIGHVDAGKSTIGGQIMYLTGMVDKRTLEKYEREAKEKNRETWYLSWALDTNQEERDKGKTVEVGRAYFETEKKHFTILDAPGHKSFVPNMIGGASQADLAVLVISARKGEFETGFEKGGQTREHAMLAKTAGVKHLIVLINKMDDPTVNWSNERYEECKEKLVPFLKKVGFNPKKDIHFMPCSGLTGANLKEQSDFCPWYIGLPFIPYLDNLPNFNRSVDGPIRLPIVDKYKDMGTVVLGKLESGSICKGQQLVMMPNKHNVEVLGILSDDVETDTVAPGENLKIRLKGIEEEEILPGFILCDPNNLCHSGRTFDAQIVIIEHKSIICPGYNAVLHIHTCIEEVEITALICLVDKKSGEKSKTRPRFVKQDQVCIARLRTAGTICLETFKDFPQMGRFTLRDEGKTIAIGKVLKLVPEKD
T6 sequence (Q96SW2 whole entry): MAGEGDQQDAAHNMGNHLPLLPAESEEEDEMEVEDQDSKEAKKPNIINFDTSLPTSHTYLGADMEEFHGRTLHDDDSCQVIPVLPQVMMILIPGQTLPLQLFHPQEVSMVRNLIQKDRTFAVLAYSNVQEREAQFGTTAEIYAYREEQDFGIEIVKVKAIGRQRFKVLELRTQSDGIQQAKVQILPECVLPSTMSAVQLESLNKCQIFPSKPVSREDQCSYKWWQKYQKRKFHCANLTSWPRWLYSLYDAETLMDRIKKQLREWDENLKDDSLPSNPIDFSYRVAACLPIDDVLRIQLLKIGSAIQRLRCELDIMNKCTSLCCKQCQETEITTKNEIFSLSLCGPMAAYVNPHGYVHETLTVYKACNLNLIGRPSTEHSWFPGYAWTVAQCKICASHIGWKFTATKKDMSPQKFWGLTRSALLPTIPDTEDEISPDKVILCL
T6 sequence (Q16531 whole entry partner): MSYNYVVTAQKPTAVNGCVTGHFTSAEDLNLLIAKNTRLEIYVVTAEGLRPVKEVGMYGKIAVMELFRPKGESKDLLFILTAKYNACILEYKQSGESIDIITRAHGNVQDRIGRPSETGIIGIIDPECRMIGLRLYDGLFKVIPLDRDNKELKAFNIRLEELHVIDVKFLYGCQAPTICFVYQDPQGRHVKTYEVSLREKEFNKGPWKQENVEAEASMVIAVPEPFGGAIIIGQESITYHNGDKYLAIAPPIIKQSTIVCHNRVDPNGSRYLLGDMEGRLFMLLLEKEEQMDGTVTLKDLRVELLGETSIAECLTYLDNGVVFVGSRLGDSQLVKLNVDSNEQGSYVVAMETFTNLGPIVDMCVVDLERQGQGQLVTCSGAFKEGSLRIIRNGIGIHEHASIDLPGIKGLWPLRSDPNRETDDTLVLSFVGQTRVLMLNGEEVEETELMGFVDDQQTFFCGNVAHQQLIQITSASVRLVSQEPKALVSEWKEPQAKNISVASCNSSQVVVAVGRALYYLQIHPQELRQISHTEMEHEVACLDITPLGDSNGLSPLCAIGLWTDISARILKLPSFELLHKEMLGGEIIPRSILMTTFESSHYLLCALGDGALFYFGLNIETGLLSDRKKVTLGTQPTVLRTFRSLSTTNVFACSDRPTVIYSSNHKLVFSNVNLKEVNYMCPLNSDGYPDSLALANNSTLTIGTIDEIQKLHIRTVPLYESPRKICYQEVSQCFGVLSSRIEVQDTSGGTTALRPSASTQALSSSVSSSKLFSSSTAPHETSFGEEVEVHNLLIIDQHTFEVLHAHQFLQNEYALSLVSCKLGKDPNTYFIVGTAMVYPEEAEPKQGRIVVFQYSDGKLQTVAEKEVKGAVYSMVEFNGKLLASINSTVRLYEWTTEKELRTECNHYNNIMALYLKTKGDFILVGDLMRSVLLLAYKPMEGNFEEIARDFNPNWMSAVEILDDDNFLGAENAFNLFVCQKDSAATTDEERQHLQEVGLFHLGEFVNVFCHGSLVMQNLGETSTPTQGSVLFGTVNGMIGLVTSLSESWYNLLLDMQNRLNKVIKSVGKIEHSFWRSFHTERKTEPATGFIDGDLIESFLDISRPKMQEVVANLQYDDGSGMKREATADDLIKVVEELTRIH

T1 sequence (P30291 whole entry): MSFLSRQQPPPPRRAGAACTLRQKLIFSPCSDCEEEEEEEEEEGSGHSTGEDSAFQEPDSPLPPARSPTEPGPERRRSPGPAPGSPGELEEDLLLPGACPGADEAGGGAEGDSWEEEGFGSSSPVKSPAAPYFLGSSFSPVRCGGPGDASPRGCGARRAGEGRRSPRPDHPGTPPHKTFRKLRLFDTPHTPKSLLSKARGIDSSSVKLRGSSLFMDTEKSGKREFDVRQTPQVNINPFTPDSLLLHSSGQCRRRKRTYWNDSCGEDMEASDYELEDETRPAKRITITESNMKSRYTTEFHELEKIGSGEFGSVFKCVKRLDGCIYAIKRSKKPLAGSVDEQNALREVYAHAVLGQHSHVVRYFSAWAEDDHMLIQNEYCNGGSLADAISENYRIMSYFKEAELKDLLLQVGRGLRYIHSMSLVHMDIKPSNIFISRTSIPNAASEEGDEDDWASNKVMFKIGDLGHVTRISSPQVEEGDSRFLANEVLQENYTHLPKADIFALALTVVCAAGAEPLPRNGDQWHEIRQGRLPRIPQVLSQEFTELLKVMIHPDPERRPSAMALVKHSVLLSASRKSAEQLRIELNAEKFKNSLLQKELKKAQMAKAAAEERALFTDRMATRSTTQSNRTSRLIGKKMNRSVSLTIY
T1 sequence (Q96SW2 whole entry): as the sequence (Q96SW2 whole entry) above
T1 sequence (Q16531 whole entry partner): as the sequence (Q16531 whole entry partner) above
T2 sequence (Q9UKT9 whole entry): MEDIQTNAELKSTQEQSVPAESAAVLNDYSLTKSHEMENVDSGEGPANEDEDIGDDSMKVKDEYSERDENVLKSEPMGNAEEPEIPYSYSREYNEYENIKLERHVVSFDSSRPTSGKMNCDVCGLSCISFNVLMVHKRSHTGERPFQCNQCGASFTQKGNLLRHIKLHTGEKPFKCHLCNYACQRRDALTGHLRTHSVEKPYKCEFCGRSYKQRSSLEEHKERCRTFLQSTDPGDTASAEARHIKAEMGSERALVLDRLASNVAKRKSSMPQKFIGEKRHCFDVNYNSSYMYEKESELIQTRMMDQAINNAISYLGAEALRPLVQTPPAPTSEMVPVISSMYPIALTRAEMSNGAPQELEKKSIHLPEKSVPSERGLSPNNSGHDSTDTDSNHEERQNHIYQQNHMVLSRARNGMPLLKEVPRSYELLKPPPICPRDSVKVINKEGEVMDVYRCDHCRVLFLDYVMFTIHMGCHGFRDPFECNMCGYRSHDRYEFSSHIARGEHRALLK
T2 sequence (Q96SW2 whole entry): as the sequence (Q96SW2 whole entry) above
T2 sequence (Q16531 whole entry partner): as the sequence (Q16531 whole entry partner) above
T5 sequence (Q13422 whole entry): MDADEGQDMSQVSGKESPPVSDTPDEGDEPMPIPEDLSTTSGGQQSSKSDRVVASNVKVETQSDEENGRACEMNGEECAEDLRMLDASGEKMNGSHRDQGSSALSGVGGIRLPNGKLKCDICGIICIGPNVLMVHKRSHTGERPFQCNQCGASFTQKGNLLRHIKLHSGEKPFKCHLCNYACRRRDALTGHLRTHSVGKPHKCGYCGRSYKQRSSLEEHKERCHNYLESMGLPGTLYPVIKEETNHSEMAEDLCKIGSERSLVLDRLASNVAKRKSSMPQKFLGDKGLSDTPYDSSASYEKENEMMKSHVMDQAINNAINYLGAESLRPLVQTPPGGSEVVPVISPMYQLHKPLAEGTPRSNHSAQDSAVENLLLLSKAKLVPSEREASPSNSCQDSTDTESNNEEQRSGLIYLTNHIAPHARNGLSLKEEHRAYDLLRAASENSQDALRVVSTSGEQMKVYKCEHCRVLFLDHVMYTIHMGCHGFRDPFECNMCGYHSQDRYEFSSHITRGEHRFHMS
T5 sequence (Q96SW2 whole entry): as the sequence (Q96SW2 whole entry) above
T5 sequence (Q16531 whole entry partner): as the sequence (Q16531 whole entry partner) above
T3 sequence (Q9UKS7 whole entry): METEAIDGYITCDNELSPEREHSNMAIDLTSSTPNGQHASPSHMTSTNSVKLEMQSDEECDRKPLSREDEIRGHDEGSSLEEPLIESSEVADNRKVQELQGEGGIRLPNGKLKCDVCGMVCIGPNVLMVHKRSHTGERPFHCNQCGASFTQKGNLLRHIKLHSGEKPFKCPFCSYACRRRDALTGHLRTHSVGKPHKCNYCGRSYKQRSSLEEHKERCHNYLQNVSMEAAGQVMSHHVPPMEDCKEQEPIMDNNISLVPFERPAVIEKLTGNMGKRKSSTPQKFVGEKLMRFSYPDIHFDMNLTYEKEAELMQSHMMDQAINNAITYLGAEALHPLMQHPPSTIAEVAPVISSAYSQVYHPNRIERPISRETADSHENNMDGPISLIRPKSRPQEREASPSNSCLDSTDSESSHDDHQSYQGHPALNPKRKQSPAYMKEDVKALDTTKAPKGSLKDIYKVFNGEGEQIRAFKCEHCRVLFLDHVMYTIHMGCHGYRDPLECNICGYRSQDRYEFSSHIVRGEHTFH
T3 sequence (Q96SW2 whole entry): as the sequence (Q96SW2 whole entry) above
T3 sequence (Q16531 whole entry partner): as the sequence (Q16531 whole entry partner) above

| Compound | substrate protein remaining % WEE1 [1] | substrate protein remaining % IKZF3 [2] | substrate protein remaining % IKZF2 [3] | substrate protein remaining % CK1α [4] | substrate protein remaining % IKZF1 [5] | substrate protein remaining % GSPT1 [6] |
| --- | --- | --- | --- | --- | --- | --- |
| CC1(C)CCC(CN2CC3CCC2CN3Cc2ccc3c(c2)CN(N2CCC(=O)NC2=O)C3=O)=C(c2ccc(Cl)cc2)C1 (stereo not drawn) [GT-07331, 1-(5-((5-((4'-chloro-5,5-dimethyl-3,4,5,6-tetrahydro-[1,1'-biphenyl]-2-yl)methyl)-2,5-diazabicyclo[2.2.2]octan-2-yl)methyl)-1-oxoisoindolin-2-yl)dihydropyrimidine-2,4(1H,3H)-dione] | A (0% ≤ substrate protein remaining % ≤ 80%) | A (0% ≤ substrate protein remaining % ≤ 80%) | B (80%< substrate protein remaining %≤ 100%) | A (0% ≤ substrate protein remaining % ≤ 80%) | A (0% ≤ substrate protein remaining % ≤ 80%) | A (0% ≤ substrate protein remaining % ≤ 80%) |
| CC1(C)CC(c2ccc(Cl)cc2)=C(CN2CCN(Cc3ccc4c(c3)CN(N3CCC(=O)NC3=O)C4=O)CC2)CO1 [GT-07332, 1-(5-((4-((4-(4-chlorophenyl)-6,6-dimethyl-5,6-dihydro-2H-pyran-3-yl)methyl)piperazin-1-yl)methyl)-1-oxoisoindolin-2-yl)dihydropyrimidine-2,4(1H,3H)-dione] | A (0% ≤ substrate protein remaining % ≤ 80%) | A (0% ≤ substrate protein remaining % ≤ 80%) | B (80%< substrate protein remaining %≤ 100%) | B (80%< substrate protein remaining %≤ 100%) | A (0% ≤ substrate protein remaining % ≤ 80%) | A (0% ≤ substrate protein remaining % ≤ 80%) |
| CC1(C)CCC(CN2CC3CCC(C2)N3Cc2ccc3c(c2)C(=O)N(N2CCC(=O)NC2=O)C3=O)=C(c2ccc(Cl)cc2)C1 [GT-07333, 5-((3-((4'-chloro-5,5-dimethyl-3,4,5,6-tetrahydro-[1,1'-biphenyl]-2-yl)methyl)-3,8-diazabicyclo[3.2.1]octan-8-yl)methyl)-2-(2,4-dioxotetrahydropyrimidin-1(2H)-yl)isoindoline-1,3-dione] | B (80%< substrate protein remaining %≤ 100%) | B (80%< substrate protein remaining %≤ 100%) | B (80%< substrate protein remaining %≤ 100%) | B (80%< substrate protein remaining %≤ 100%) | B (80%< substrate protein remaining %≤ 100%) | A (0% ≤ substrate protein remaining % ≤ 80%) |
| CC1(C)CCC(CN2CC3CC2CN3Cc2ccc3c(c2)C(=O)N(N2CCC(=O)NC2=O)C3=O)=C(c2ccc(Cl)cc2)C1 (stereo not drawn) [GT-07334, 5-((5-((4'-chloro-5,5-dimethyl-3,4,5,6-tetrahydro-[1,1'-biphenyl]-2-yl)methyl)-2,5-diazabicyclo[2.2.1]heptan-2-yl)methyl)-2-(2,4-dioxotetrahydropyrimidin-1(2H)-yl)isoindoline-1,3-dione] | A (0% ≤ substrate protein remaining % ≤ 80%) | B (80%< substrate protein remaining %≤ 100%) | B (80%< substrate protein remaining %≤ 100%) | A (0% ≤ substrate protein remaining % ≤ 80%) | B (80%< substrate protein remaining %≤ 100%) | B (80%< substrate protein remaining %≤ 100%) |
| Cc1cscc1C1CCN(Cc2ccc3c(c2)CN(N2CCC(=O)NC2=O)C3=O)CC1 [GT-07372, 1-(5-((4-(4-methylthiophen-3-yl)piperidin-1-yl)methyl)-1-oxoisoindolin-2-yl)dihydropyrimidine-2,4(1H,3H)-dione] | B (80%< substrate protein remaining %≤ 100%) | A (0% ≤ substrate protein remaining % ≤ 80%) | B (80%< substrate protein remaining %≤ 100%) | B (80%< substrate protein remaining %≤ 100%) | B (80%< substrate protein remaining %≤ 100%) | A (0% ≤ substrate protein remaining % ≤ 80%) |
